Assay results published in patent US4461899A, “Fluorenecarboxylic acid derivatives” (Diamond Shamrock Chemicals Company, priority 1982, dated 1984).
“Also recorded” adds a separate entry of the source. Counter-ions that a name gives are not always drawn.

Experiments:
Format in all cases: in vivo
soybean plants = assay: Soybean yield after foliar spray at early flowering stage; conditions: for Yield Improvement %: vs control
From the text: Two 50 cm rows of soybean plants at the early flowering stage were sprayed with 100 ppm or 500 ppm of the cis-2,5-dimethylpyrrolidine salt of 9-fluorenecarboxylic acid, using a spray volume of about 375 liters/hectare (40 gallons/acre). For comparison, other rows were sprayed with like concentrations of two known compounds as designated below. Also 2 untreated rows were maintained to serve as a control: each of the plots was weeded by hand as needed. At maturity, each plot was harvested and the yield was determined.

[1] = system: Kentucky and Merion turfgrass mixture; assay: Turfgrass growth retardation (height and fresh weight of clippings) after spraying; conditions: for % Reduction in Weight / Reduction in Height: vs control
Description: Two known plant growth regulants were similarly tested. Some grass samples were not treated, only fertilized, as controls. Before treatment, the grass was cut and then fertilized with a 20-20-20 water-soluble fertilizer. Three pots were sprayed per treatment. […] The pots were placed in a plant growth room and were watered daily. The grass was cut at 21, 49 and 84 days after being treated; the blade height and total fresh weight of the clippings were measured.

[2] = system: field grown tomato plants; assay: Overall yield and fruit size of field grown tomatoes; conditions: for tomato yield / fruit size, in words: 10, 50 and 500 ppm, Example 1 decrease at 500 ppm; for Fruit Size, Green (% of Control): control 104.0 g; for Fruit Size, Red (% of Control): control 105.5 g
From the text: This example illustrates the effects of compounds of this invention on overall yield of tomatoes. For the test, field grown tomato plants, when in the early flowering stage, were foliage sprayed with the particular compounds of the invention designated below, and with the commercial product CF-125 (Maintain), at rates of 10, 50 and 500 ppm. These rates correspond to applications of 3.69 g, 18.54 g and 185.4 g/hectare, respectively. Each treatment consisted of five plants; the experimental design was a complete randomized block with three replications. A block of untreated plants was included as the control. The fruit was harvested by hand and separated into […] ripe fruit and marketable green fruit.

[3] = system: field grown tomato plants; assay: Fruit set and phytotoxicity in field grown tomato plants; conditions: for Increase Over Control (%) of fruit set: 24 days; for Fruit Set Per Plant (After 24 days) / Phytotoxicity: 24 days after treatment; for Increase (%) of fruit set: initial to 24 days
From the text: To determine fruit set effects by compounds of this invention, field grown tomato plants were foliage sprayed with the cis-2,5-dimethylpyrrolidine salt of […], 9-cis-2,5-dimethyl-1-pyrrolidinyl-2-chlorofluorene-9-carboxylic acid, methyl ester, and the commercial plant growth regulant, MAINTAIN CF-125 (methyl-2-chloro-9hydroxyfluorene-9-carboxylate, manufactured by U.S. Borax and Chemical Corp.). Rates of application employed were 5, 25, and 100 ppm when the tomato plants were in the late blooming to early fruit setting stage. Untreated plants were included in the test as controls. Five plants were sprayed for each chemical treatment. The number of fruit set and the degree of phytotoxicity to the plants were determined 24 days after treatment.

[4] = system: "Walter" variety tomato plants; assay: Yield of "Walter" variety tomatoes, weekly harvest of mature red fruit; conditions: for Total Fruit / Total Fruit, % of Control: weeks 1-6
From the text: Compounds of this invention were further tested as tomato yield enhancers as follows:
"Walter" variety tomato plants, in the early flowering stage, were foliage sprayed at a rate of 68.8 liters/hectare with compounds of this invention, and with the commercial product, CF-125. Each plot consisted of 20 plants; the experimental design was a completed randomized block with three replications. A plot of untreated plants was included as a control. Marketable, mature red tomatoes were harvested weekly, beginning 5 weeks after treatment.

[5] = 1.12 kilogram/hectare, after 21 days
[6] = 1.12 kilogram/hectare, after 49 days
[7] = 1.12 kilogram/hectare, after 84 days
[8] = 2.24 kilogram/hectare, after 21 days
[9] = 2.24 kilogram/hectare, after 49 days
[10] = 2.24 kilogram/hectare, after 84 days
[11] = 4.48 kilogram/hectare, after 49 days
[12] = 4.48 kilogram/hectare, after 84 days

O=C(O)c1cccc2c1Cc1ccccc1-2 [1-fluorenecarboxylic acid]
Yield (Kilograms) × 10^2 (soybean plants; 100 ppm): 17.16 Kilograms × 10^2
Yield Improvement % (soybean plants; 100 ppm): -2.7%
Yield (Kilograms) × 10^2 (soybean plants; 500 ppm): 17.34 Kilograms × 10^2
Yield Improvement % (soybean plants; 500 ppm): -1.5%

O=C(O)C1c2ccccc2-c2ccccc21 [9-fluorenecarboxylic acid]
Yield (Kilograms) × 10^2 (soybean plants; 100 ppm): 18.93 Kilograms × 10^2
Yield Improvement % (soybean plants; 100 ppm): 7.3%
Yield (Kilograms) × 10^2 (soybean plants; 500 ppm): 19.02 Kilograms × 10^2
Yield Improvement % (soybean plants; 500 ppm): 7.5%

O=C(O)c1cccc2c1Cc1ccccc1-2 [Example 1, cis-2,5-dimethyl-1-pyrrolidine salt of 1-fluorenecarboxylic acid]
% Reduction in Weight [1, 5]: 76%
Reduction in Height [1, 5]: 50%
% Reduction in Weight [1, 6]: 45%
Reduction in Height [1, 6]: 45%
% Reduction in Weight [1, 7]: 0%
Reduction in Height [1, 7]: 0%
% Reduction in Weight [1, 8]: 73%
Reduction in Height [1, 8]: 48%
% Reduction in Weight [1, 9]: 64%
Reduction in Height [1, 9]: 46%
% Reduction in Weight [1, 10]: 0%
Reduction in Height [1, 10]: 0%
Reduction in Height ([1]; 4.48 kilogram/hectare, after 21 days): 56%
% Reduction in Weight [1, 11]: 63%
Reduction in Height [1, 11]: 46%
% Reduction in Weight [1, 12]: 19%
Reduction in Height [1, 12]: 31%
appearance of treated turf (leaf, texture) ([1]; in words): fine leaf and smooth texture; it did not have the twisted, yellowish leaves
activity in controlling grass growth ([1]; in words, compared with MAINTAIN CF-125 and MOW-LESS): more active in controlling grass growth than either MAINTAIN CF-125 or MOW-LESS
% Reduction in Weight ([1]; third dosage column, printed 1.12 kilogram/hectare, after 21 days): 75%
tomato yield / fruit size, in words [2]: enhanced, at the rates applied, either the total yield of tomatoes and/or the percentage of red fruit vs. green fruit; also recorded: caused a decrease in all yields when applied at a rate of 500 ppm
Fruit Yield, Green (% of Control) ([2]; 10 ppm): 92 % of Control
Fruit Yield, Red (% of Control) ([2]; 10 ppm): 152 % of Control
Total Yield (% of Control) ([2]; 10 ppm): 113 % of Control
Fruit Size, Green (% of Control) ([2]; 10 ppm): 76 % of Control
Fruit Size, Red (% of Control) ([2]; 10 ppm): 87 % of Control
Fruit Yield, Green (% of Control) ([2]; 50 ppm): 45 % of Control
Fruit Yield, Red (% of Control) ([2]; 50 ppm): 149 % of Control
Total Yield (% of Control) ([2]; 50 ppm): 80 % of Control
Fruit Size, Green (% of Control) ([2]; 50 ppm): 93 % of Control
Fruit Size, Red (% of Control) ([2]; 50 ppm): 73 % of Control
Fruit Yield, Green (% of Control) ([2]; 500 ppm): 54 % of Control
Fruit Yield, Red (% of Control) ([2]; 500 ppm): 68 % of Control
Total Yield (% of Control) ([2]; 500 ppm): 59 % of Control
Fruit Size, Green (% of Control) ([2]; 500 ppm): 87 % of Control
Fruit Size, Red (% of Control) ([2]; 500 ppm): 79 % of Control
Yield (Kilograms) × 10^2 (soybean plants; 100 ppm): 19.38 Kilograms × 10^2
Yield Improvement % (soybean plants; 100 ppm): 9.8%
Yield (Kilograms) × 10^2 (soybean plants; 500 ppm): 21.98 Kilograms × 10^2
Yield Improvement % (soybean plants; 500 ppm): 24.1%
Increase Over Control (%) of fruit set ([3]; 5 ppm): 35%
Fruit Set Per Plant (After 24 days) ([3]; 5 ppm): 16.2
Phytotoxicity ([3]; 5 ppm): 0
Fruit Set Per Plant (Initial) ([3]; 5 ppm): 7.6
Increase (%) of fruit set ([3]; 5 ppm): 108%
Increase Over Control (%) of fruit set ([3]; 25 ppm): 18%
Fruit Set Per Plant (After 24 days) ([3]; 25 ppm): 21.0
Phytotoxicity ([3]; 25 ppm): 0
Fruit Set Per Plant (Initial) ([3]; 25 ppm): 11.0
Increase (%) of fruit set ([3]; 25 ppm): 91%
Increase Over Control (%) of fruit set ([3]; 100 ppm): 47%
Fruit Set Per Plant (After 24 days) ([3]; 100 ppm): 23.8
Phytotoxicity ([3]; 100 ppm): light
Fruit Set Per Plant (Initial) ([3]; 100 ppm): 10.8
Increase (%) of fruit set ([3]; 100 ppm): 120%

COC(=O)C1(N2[C@H](C)CC[C@@H]2C)c2ccccc2-c2ccc(Cl)cc21 (stereo partly drawn) [Example 8, 9-cis-2,5-dimethyl-1-pyrrolidinyl-2-chlorofluorene-9-carboxylic acid, methyl ester]
tomato yield / fruit size, in words [2]: became inhibitory above the 50 ppm rate
Fruit Yield, Green (% of Control) ([2]; 10 ppm): 64 % of Control
Fruit Yield, Red (% of Control) ([2]; 10 ppm): 161 % of Control
Total Yield (% of Control) ([2]; 10 ppm): 97 % of Control
yield of red fruit over the control yield ([2]; 10 ppm): 61%
Fruit Size, Green (% of Control) ([2]; 10 ppm): 93 % of Control
Fruit Size, Red (% of Control) ([2]; 10 ppm): 82 % of Control
Fruit Yield, Green (% of Control) ([2]; 50 ppm): 26 % of Control
Fruit Yield, Red (% of Control) ([2]; 50 ppm): 93 % of Control
Total Yield (% of Control) ([2]; 50 ppm): 49 % of Control
Fruit Size, Green (% of Control) ([2]; 50 ppm): 46 % of Control
Fruit Size, Red (% of Control) ([2]; 50 ppm): 95 % of Control
Fruit Yield, Green (% of Control) ([2]; 500 ppm): 0 % of Control
Fruit Yield, Red (% of Control) ([2]; 500 ppm): 76 % of Control
Total Yield (% of Control) ([2]; 500 ppm): 26 % of Control
Fruit Size, Green (% of Control) ([2]; 500 ppm): 0 % of Control
Fruit Size, Red (% of Control) ([2]; 500 ppm): 67 % of Control
increased tomato yields above the yield of control plots ([4]; 5-10 ppm): 39-80%
Fruit Yield (kg/plot) ([4]; 5 ppm): 32.8 kg/plot
Total Yield Wt. % of Control ([4]; 5 ppm): 139.0 % of Control
Fruit harvested, Harvest Time (Week) 1 ([4]; 5 ppm): 11
Fruit harvested, Harvest Time (Week) 2 ([4]; 5 ppm): 109
Fruit harvested, Harvest Time (Week) 3 ([4]; 5 ppm): 103
Fruit harvested, Harvest Time (Week) 4 ([4]; 5 ppm): 168
Fruit harvested, Harvest Time (Week) 5 ([4]; 5 ppm): 208
Fruit harvested, Harvest Time (Week) 6 ([4]; 5 ppm): 286
Total Fruit ([4]; 5 ppm): 885
Total Fruit, % of Control ([4]; 5 ppm): 154 % of Control
Fruit Yield (kg/plot) ([4]; 10 ppm): 42.6 kg/plot
Total Yield Wt. % of Control ([4]; 10 ppm): 180.5 % of Control
Fruit harvested, Harvest Time (Week) 1 ([4]; 10 ppm): 13
Fruit harvested, Harvest Time (Week) 2 ([4]; 10 ppm): 123
Fruit harvested, Harvest Time (Week) 3 ([4]; 10 ppm): 126
Fruit harvested, Harvest Time (Week) 4 ([4]; 10 ppm): 240
Fruit harvested, Harvest Time (Week) 5 ([4]; 10 ppm): 306
Fruit harvested, Harvest Time (Week) 6 ([4]; 10 ppm): 296
Total Fruit ([4]; 10 ppm): 1104
Total Fruit, % of Control ([4]; 10 ppm): 192 % of Control
Fruit Yield (kg/plot) ([4]; 50 ppm): 15.4 kg/plot
Total Yield Wt. % of Control ([4]; 50 ppm): 65.3 % of Control
Fruit harvested, Harvest Time (Week) 1 ([4]; 50 ppm): 34
Fruit harvested, Harvest Time (Week) 2 ([4]; 50 ppm): 150
Fruit harvested, Harvest Time (Week) 3 ([4]; 50 ppm): 81
Fruit harvested, Harvest Time (Week) 4 ([4]; 50 ppm): 25
Fruit harvested, Harvest Time (Week) 5 ([4]; 50 ppm): 9
Fruit harvested, Harvest Time (Week) 6 ([4]; 50 ppm): 100
Total Fruit ([4]; 50 ppm): 399
Total Fruit, % of Control ([4]; 50 ppm): 69 % of Control
Increase Over Control (%) of fruit set ([3]; 5 ppm): 36%
Fruit Set Per Plant (After 24 days) ([3]; 5 ppm): 19.6
Phytotoxicity ([3]; 5 ppm): 0
Fruit Set Per Plant (Initial) ([3]; 5 ppm): 9.4
Increase (%) of fruit set ([3]; 5 ppm): 109%
Increase Over Control (%) of fruit set ([3]; 25 ppm): 9%
Fruit Set Per Plant (After 24 days) ([3]; 25 ppm): 18.6
Phytotoxicity ([3]; 25 ppm): 0
Fruit Set Per Plant (Initial) ([3]; 25 ppm): 10.2
Increase (%) of fruit set ([3]; 25 ppm): 82%
Increase Over Control (%) of fruit set ([3]; 100 ppm): -23%
Fruit Set Per Plant (After 24 days) ([3]; 100 ppm): 15.6
Fruit Set Per Plant (Initial) ([3]; 100 ppm): 10.4
Increase (%) of fruit set ([3]; 100 ppm): 50%

C[C@@H]1CC[C@H](C)N1.O=C(O)C1c2ccccc2-c2ccccc21 [Example 15, Cis-2,5-dimethylpyrrolidine salt of 9-fluorenecarboxylic acid]
soybean yield, in words (soybean plants; particularly at 500 ppm, over untreated control and fluorenecarboxylic acids): significantly enhances soybean yield over the untreated control plot and over plots treated with known morphactins
